Reference: patent US9115126B2, “1H-[1,2,3]triazolo[4,5-c]pyridine-4-carbonitrile derivatives” (Merck Sharp & Dohme B.V., priority 2010, dated 2015)
Structures can show the parent of a compound that is named as a salt. Where two headings read alike, the source gives them in different places.

Target: recombinant human Cathepsin S (Homo sapiens (Human), UniProt P25774)
Experiment: Cathepsin S assay procedure (fluorogenic substrate Z-Val-Val-Arg-AMC)
Type: biochemical
Description: 25 μl of a 2 mg/l solution of activated recombinant human cathepsin S, in assay buffer, is then added to the well, yielding a final inhibitor concentration of 10 μM.
Enzyme activity is determined by measuring the fluorescence of the liberated aminomethylcoumarin at […] using 390 nm excitation, at 20 minutes. Percentage enzyme activity is calculated by comparison of this activity to that of a solution containing no inhibitor.

[1] = pH5.5, fluorescence at 20 minutes, read-out: Cat S activity IC50
[2] = read-out: pIC50 (negative logarithm of the IC50 concentration) for inhibition of human cathepsin S (converted)

Chain of recombinant human Cathepsin S (P25774 115-331): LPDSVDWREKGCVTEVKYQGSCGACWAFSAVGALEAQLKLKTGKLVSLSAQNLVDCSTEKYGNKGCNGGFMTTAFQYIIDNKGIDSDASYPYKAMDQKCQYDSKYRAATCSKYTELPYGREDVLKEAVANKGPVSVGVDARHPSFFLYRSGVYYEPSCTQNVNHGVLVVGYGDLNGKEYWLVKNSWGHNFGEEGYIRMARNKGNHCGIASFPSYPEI

| SMILES | IC50 [1] [nM] | IC50 [2] [nM] |
| --- | --- | --- |
| Cn1cnc2c(C#N)nc(-c3ccc(OCCC4CCNCC4)c(C(F)(F)F)c3)cc21 [WO 2009/010491, Example 14a, reference compound] | 8 | – |
| Cc1cccc(N2CCC(CCOc3ccc(-c4cc5c(nnn5C)c(C#N)n4)cc3C(F)(F)F)CC2)n1 [Example 4b, 1-methyl-6-(4-(2-(1-(6-methylpyridin-2-yl)piperidin-4-yl)ethoxy)-3-(trifluoromethyl)phenyl)-1H-[1,2,3]triazolo[4,5-c]pyridine-4-carbonitrile hydrochloride] | 9 | < 10 |
| Cn1nnc2c(C#N)nc(-c3ccc(OCCN4CCS(=O)(=O)CC4)c(C(F)(F)F)c3)cc21 [Example 37p, 1-methyl-6-(4-(2-(4-S,S-dioxothiomorpholin-1-yl)ethoxy)-3-(trifluoromethyl)phenyl)-1H-[1,2,3]triazolo[4,5-c]pyridine-4-carbonitrile] | – | < 10 |
| Cn1nnc2c(C#N)nc(-c3ccc(OCc4cccnc4)c(C(F)(F)F)c3)cc21 [Example 22, 1-methyl-6-(4-(pyridin-3-ylmethoxy)-3-(trifluoromethyl)phenyl)-1H-[1,2,3]triazolo[4,5-c]pyridine-4-carbonitrile] | – | < 10 |
| Cn1nnc2c(C#N)nc(-c3ccc(OCCN4CCNC(=O)C4)c(C(F)(F)F)c3)cc21 [Example 37r, 1-methyl-6-(4-(2-(3-oxopiperazin-1-yl)ethoxy)-3-(trifluoromethyl)phenyl)-1H-[1,2,3]triazolo[4,5-c]pyridine-4-carbonitrile] | – | < 10 |
| Cn1nnc2c(C#N)nc(-c3ccc(OCCC4CCNCC4)c(C(F)(F)F)c3)cc21 [Example 1, 1-methyl-6-(4-(2-(piperidin-4-yl)ethoxy)-3-(trifluoromethyl)phenyl)-1H-[1,2,3]triazolo[4,5-c]pyridine-4-carbonitrile] | 0.8 | < 10 |
| Cn1nnc2c(C#N)nc(-c3ccc(OCCN4CCN(CCO)CC4)c(C(F)(F)F)c3)cc21 [Example 37e, 6-(4-(2-(4-(2-hydroxyethyl)piperazin-1-yl)ethoxy)-3-(trifluoromethyl)phenyl)-1-methyl-1H-[1,2,3]triazolo[4,5-c]pyridine-4-carbonitrile] | – | < 10 |
| CC(C)c1noc(COc2ccc(-c3cc4c(nnn4C)c(C#N)n3)cc2C(F)(F)F)n1 [Example 43, 6-(4-((3-isopropyl-1,2,4-oxadiazol-5-yl)methoxy)-3-(trifluoromethyl)phenyl)-1-methyl-1H-[1,2,3]triazolo[4,5-c]pyridine-4-carbonitrile] | – | < 10 |
| Cn1nnc2c(C#N)nc(-c3ccc(OCCC4CCN(Cc5ncon5)CC4)c(C(F)(F)F)c3)cc21 [Example 3c, 6-(4-(2-(1-((1,2,4-oxadiazol-3-yl)methyl)piperidin-4-yl)ethoxy)-3-(trifluoromethyl)phenyl)-1-methyl-1H-[1,2,3]triazolo[4,5-c]pyridine-4-carbonitrile] | – | < 10 |
| Cn1nnc2c(C#N)nc(-c3ccc(OCCC4CCN(CC(N)=O)CC4)c(C(F)(F)F)c3)cc21 [Example 2c, 6-(4-(2-(1-(2-amino-2-oxoethyl)piperidin-4-yl)ethoxy)-3-(trifluoromethyl)phenyl)-1-methyl-1H-[1,2,3]triazolo[4,5-c]pyridine-4-carbonitrile] | – | < 10 |
| CN(C)CCCOc1ccc(-c2cc3c(ncn3C)c(C#N)n2)cc1C(F)(F)F [WO 2009/010491 - Example 2a, reference compound] | 32 | – |
| Cn1nnc2c(C#N)nc(-c3ccc(OCc4cccc[n+]4[O-])c(C(F)(F)F)c3)cc21 [Example 21, 1-methyl-6-(4-(1-N-oxy-pyridin-2-ylmethoxy)-3-(trifluoromethyl)phenyl)-1H-[1,2,3]triazolo[4,5-c]pyridine-4-carbonitrile] | – | < 10 |
| Cn1nnc2c(C#N)nc(-c3ccc(OCCC4CCN(CCS(C)(=O)=O)CC4)c(C(F)(F)F)c3)cc21 [Example 19, 1-methyl-6-(4-(2-(1-(2-(methylsulfonyl)ethyl)piperidin-4-yl)ethoxy)-3-(trifluoromethyl)phenyl)-1H-[1,2,3]triazolo[4,5-d]pyridine-4-carbonitrile] | – | < 10 |
| Cn1nnc2c(C#N)nc(-c3ccc(OCCC4CNC4)c(C(F)(F)F)c3)cc21 [Example 30, 6-(4-(2-(azetidin-3-yl)ethoxy)-3-(trifluoromethyl)phenyl)-1-methyl-1H-[1,2,3]triazolo[4,5-d]pyridine-4-carbonitrile 2,2,2-trifluoroacetate] | – | < 10 |
| Cn1nnc2c(C#N)nc(-c3ccc(OCCC4CCN(Cc5ncno5)CC4)c(C(F)(F)F)c3)cc21 [Example 3k, 6-(4-(2-(1-((1,2,4-oxadiazol-5-yl)methyl)piperidin-4-yl)ethoxy)-3-(trifluoromethyl)phenyl)-1-methyl-1H-[1,2,3]triazolo[4,5-c]pyridine-4-carbonitrile] | – | < 10 |
| Cn1nnc2c(C#N)nc(-c3cnc(OCCC4CCNCC4)c(C(F)(F)F)c3)cc21 [Example 26, 1-Methyl-6-(6-(2-(piperidin-4-yl)ethoxy)-5-(trifluoromethyl)pyridin-3-yl)-1H-[1,2,3]-triazolo[4,5-c]pyridine-4-carbonitrile trifluoroacetate] | – | < 10 |
| Cc1ccc(N2CC[C@@H](CCOc3ccc(-c4cc5c(nnn5C)c(C#N)n4)cc3C(F)(F)F)C2)nc1 [Example 9a, (S)-1-methyl-6-(4-(2-(1-(5-methylpyridin-2-yl)pyrrolidin-3-yl)ethoxy)-3-(trifluoromethyl)phenyl)-1H-[1,2,3]triazolo[4,5-c]pyridine-4-carbonitrile hydrochloride] | – | < 10 |
| Cc1ccc(N2CC[C@H](CCOc3ccc(-c4cc5c(nnn5C)c(C#N)n4)cc3C(F)(F)F)C2)nc1 [Example 9b, (R)-1-methyl-6-(4-(2-(1-(5-methylpyridin-2-yl)pyrrolidin-3-yl)ethoxy)-3-(trifluoromethyl)phenyl)-1H-[1,2,3]triazolo[4,5-c]pyridine-4-carbonitrile hydrochloride] | – | < 10 |
| CNC(=O)CN1CCN(CCCOc2ccc(-c3cc4c(nnn4C)c(C#N)n3)cc2C(F)(F)F)CC1 [Example 36v, 2-(4-(3-(4-(4-cyano-1-methyl-1H-[1,2,3]triazolo[4,5-c]pyridin-6-yl)-2-(trifluoromethyl)phenoxy)propyl)piperazin-1-yl)-N-methylacetamide dihydrochloride] | – | < 10 |
| CN(CCOc1ccc(-c2cc3c(nnn3C)c(C#N)n2)cc1C(F)(F)F)CC(=O)N(C)C [Example 37m, 2-((2-(4-(4-cyano-1-methyl-1H-[1,2,3]triazolo[4,5-c]pyridin-6-yl)-2-(trifluoromethyl)phenoxy)ethyl)(methyl)amino)-N,N-dimethylacetamide] | – | < 10 |
| CN(C)CCCOc1ccc(-c2cc3c(nnn3C)c(C#N)n2)cc1C(F)(F)F [Example 35, 6-(4-(3-(dimethylamino)propoxy)-3-(trifluoromethyl)phenyl)-1-methyl-1H-[1,2,3]triazolo[4,5-c]pyridine-4-carbonitrile] | 3.3 | < 10 |
| Cc1ccc(N2CCC(CCOc3ccc(-c4cc5c(nnn5C)c(C#N)n4)cc3C(F)(F)F)CC2)nc1 [Example 8, 1-methyl-6-(4-(2-(1-(5-methylpyridin-2-yl)piperidin-4-yl)ethoxy)-3-(trifluoromethyl)phenyl)-1H-[1,2,3]triazolo[4,5-c]pyridine-4-carbonitrile hydrochloride] | – | < 10 |
| Cn1nnc2c(C#N)nc(-c3ccc(OCc4ccncc4)c(C(F)(F)F)c3)cc21 [Example 24, 1-methyl-6-(4-(pyridin-4-ylmethoxy)-3-(trifluoromethyl)phenyl)-1H-[1,2,3]triazolo[4,5-c]pyridine-4-carbonitrile] | – | < 10 |
| CN(C)C(=O)CN1CCC(CCOc2ncc(-c3cc4c(nnn4C)c(C#N)n3)cc2C(F)(F)F)CC1 [Example 27a, 6-(6-(2-(1-(2-Dimethylamino-2-oxo-ethyl)piperidin-4-yl)ethoxy)-5-(trifluoromethyl)pyridin-3-yl)-1-methyl-1H-[1,2,3]triazolo[4,5-c]pyridine-4-carbonitrile hydrochloride] | – | < 10 |
| Cn1nnc2c(C#N)nc(-c3ccc(CCCO)c(C(F)(F)F)c3)cc21 [Example 44, 6-(4-(3-hydroxypropyl)-3-(trifluoromethyl)phenyl)-1-methyl-1H-[1,2,3]triazolo[4,5-c]pyridine-4-carbonitrile] | 13 | – |
| Cn1nnc2c(C#N)nc(-c3ccc(OCCN4CCNC(C(F)(F)F)C4)c(C(F)(F)F)c3)cc21 (centres unmarked) [Example 37q, 1-methyl-6-(3-(trifluoromethyl)-4-(2-(3-(trifluoromethyl)piperazin-1-yl)ethoxy)phenyl)-1H-[1,2,3]triazolo[4,5-c]pyridine-4-carbonitrile] | – | < 10 |
| Cn1nnc2c(C#N)nc(-c3ccc(OCCC4CCN(C(=O)C5(N)CC5)CC4)c(C(F)(F)F)c3)cc21 [Example 29, 6-(4-(2-(1-(1-aminocyclopropanecarbonyl)piperidin-4-yl)ethoxy)-3-(trifluoromethyl)phenyl)-1-methyl-1H-[1,2,3]triazolo[4,5-d]pyridine-4-carbonitrile] | – | < 10 |
| Cn1nnc2c(C#N)nc(-c3ccc(OCCCN4CCN(c5ccccn5)CC4)c(C(F)(F)F)c3)cc21 [Example 36w, 1-methyl-6-(4-(3-(4-(pyridin-2-yl)piperazin-1-yl)propoxy)-3-(trifluoromethyl)phenyl)-1H-[1,2,3]triazolo[4,5-c]pyridine-4-carbonitrile hydrochloride] | – | < 10 |
| CNC(=O)CN1CCC(CCOc2ccc(-c3cc4c(nnn4C)c(C#N)n3)cc2C(F)(F)F)CC1 [Example 2b, 1-methyl-6-(4-(2-(1-(2-methylamino-2-oxoethyl)piperidin-4-yl)ethoxy)-3-(trifluoromethyl)phenyl)-1H-[1,2,3]triazolo[4,5-c]pyridine-4-carbonitrile TFA salt] | – | < 10 |
